Structures can show the parent of a compound that is named as a salt.

As a reminder, the IC50 is the concentration at which inhibition is half-maximal.

This test addresses T1, Insulin-like growth factor 2 receptor (IGF-1IR, cation-independent mannose-6-phosphate receptor, CI-MPR; hIGF-IIR) (Homo sapiens, UniProt P11717).
T1 construct: purchased R&D Systems 6418-GR
Briefly: HTRF-based ternary complex inhibition assay for relative affinity of IGF-IIR ligands. The note with it: competition with MTAC probe for His-tagged hIGF-IIR; biotinylated IgG1; apparent binding affinity; read-out: TCF INH (HTRF) IC50. The protocol:
The apparent binding affinity of Insulin-like growth factor 2 receptor (IGF-1IR, also called the cation- independent mannose-6-phosphate receptor (CI-MPR)) ligands was determined indirectly by competing with a probe molecule for binding to IGF-1IR. The probe is a Mannose 6-Phosphate Ligand (“Ligand”) and binds to hIGF-IIR and IgG1 to form a hIGF-IIR: Ligand: IgG1 ternary complex. The ternary complex was detected by an HTRF readout. The ternary complex is disrupted in the presence of IGF-1IR ligand, resulting in decreased HTRF signal. IGF-1IR ligands of 3-fold dilution series were prepared from 10 mM DMSO stock on a 384-well LDV microplate using Echo Acoustic Liquid Handler (Beckman Coulter Life Sciences) followed by transfer of 600 nL of the solutions to an OptiPlate 384-well microplate (PerkinElmer, 6007290). Manose-6-phosphate (M6P; J&K, 530168) and glucose-6-phosphate (G6P; Sigma, V900924) were prepared from 100 mM stock in the same manner and were used as positive and negative controls, respectively. The wells used as 0% and 100% inhibition controls were prepared by adding 600 nL DMSO. 20 nL of 50 μM MTAC probe was transferred to all wells except the wells used as 100% Inhibition control. 9.4 μL working solution containing 65.1 nM of Biotinylated-IgG1 (Viva 20211108) and 65.1 nM of His-tagged hIGF-IIR (R&D Systems, 6418-GR) in assay buffer 50 mM Tris, pH 7.5, 150 mM NaCl, 50 mM CaCl2, 0.01% Tween-20 was transferred to all wells. The plate was incubated at room temperature for 60 min with gentle shaking to allow molecular interaction to reach equilibration. Following this, 10 μL of HTRF detection solution containing 15 nM Streptavidin-d2 (PerkinElmer, 610SADLA) and 0.7 nM MAb Anti 6HIS—Tb cryptate (PerkinElmer, 61HISTLA) in PPI Terbium detection buffer (PerkinElmer, 61DB10RDF) was added. The assay plate was incubated at room temperature with gentle shaking for 60 min to allow HTRF signal to develop. The plate was gently spun on a centrifuge then placed on a EnVision plate reader (Perkin Elmer, EnVision 2104) to read fluorescence ratio of 665 nm/615 nm. Percent inhibitions were calculated with this equation: % I=100* [1−(X−100% I/(0% I−100% I)] where X is the […] in the presence of IGF-1IR ligand. The apparent binding affinity (presented as IC50) was calculated by fitting the % inhibition data with a non-linear 4-parameter inhibition equation using GraphPad Prism (GraphPad Software, LLC; version 9.4.1).
A general note: Time-resolved FRET reads energy transfer from a long-lived donor to a nearby acceptor.
In the case of `C#C[C@H]1O[C@H](CCP(=O)(O)O)[C@@H](O)[C@H](O)[C@@H]1O` [Compound A20, (2-((2R,3S,4S,5S,6R)-6-ethynyl-3,4,5-trihydroxytetrahydro-2H-pyran-2-yl)ethyl)phosphonic acid], the IC50 was below 10 µM.
As to `O=P(O)(CC[C@H]1O[C@H](Oc2ccccc2)[C@@H](O)[C@@H](O)[C@@H]1O)Cc1ccccc1O` [Compound A46, (2-hydroxybenzyl) (2-((2R,3S,4S,5S,6R)-3,4,5-trihydroxy-6-phenoxytetrahydro-2H-pyran-2-yl)ethyl)phosphinic acid], the IC50 was below 10 µM.
Turning to `CCCP(=O)(O)CC[C@H]1OC(Oc2ccc(OC)cc2)[C@@H](O)[C@@H](O)[C@@H]1O` (stereo partly drawn) [Compound A57, propyl(2-((2R,3S,4S,5S)-3,4,5-trihydroxy-6-(4-methoxyphenoxy)tetrahydro-2H-pyran-2-yl)ethyl)phosphinic acid], the IC50 is below 10 µM.
Consider `COC(=O)c1ccc(O[C@H]2O[C@H](CNc3c(O)c(=O)c3=O)[C@@H](O)[C@H](O)[C@@H]2O)cc1` [Compound A7, methyl 4-(((3S,4S,5S,6R)-3,4,5-trihydroxy-6-(((2-hydroxy-3,4-dioxocyclobut-1-en-1-yl)amino)methyl)tetrahydro-2H-pyran-2-yl)oxy)benzoate], for which the IC50 fell in the range of 100 to 300 µM.
To `O=P(O)(CC[C@H]1O[C@H](Oc2ccccc2)[C@@H](O)[C@@H](O)[C@@H]1O)Cc1c(F)cccc1F` [Compound A42, (2,6-difluorobenzyl) (2-((2R,3S,4S,5S,6R)-3,4,5-trihydroxy-6-phenoxytetrahydro-2H-pyran-2-yl)ethyl)phosphinic acid] belongs below 10 µM; to `CO[C@@H]1O[C@H](CCS(=O)(=O)Nc2ncccn2)[C@@H](O)[C@H](O)[C@@H]1O` [Compound A8, N-(pyrimidin-2-yl)-2-((2R,3S,4S,5S,6R)-3,4,5-trihydroxy-6-methoxytetrahydro-2H-pyran-2-yl)ethane-1-sulfonamide], 10 to 100 µM; to `COc1ccc(OC2O[C@H](CCP(=O)(O)CC3CC3)[C@@H](O)[C@H](O)[C@@H]2O)cc1` (stereo partly drawn) [Compound A56, (cyclopropylmethyl) (2-((2R,3S,4S,5S)-3,4,5-trihydroxy-6-(4-methoxyphenoxy)tetrahydro-2H-pyran-2-yl)ethyl)phosphinic acid], below 10 µM.
To `COc1ccc(OC2O[C@H](CCP(=O)(O)Cc3ccccn3)[C@@H](O)[C@H](O)[C@@H]2O)cc1` (stereo partly drawn) [Compound A50, (pyridin-2-ylmethyl) (2-((2R,3S,4S,5S)-3,4,5-trihydroxy-6-(4-methoxyphenoxy)tetrahydro-2H-pyran-2-yl)ethyl)phosphinic acid] belongs below 10 µM; to `CC#CCP(=O)(O)CC[C@H]1OC(Oc2ccc(OC)cc2)[C@@H](O)[C@@H](O)[C@@H]1O` (stereo partly drawn) [Compound A53, but-2-yn-1-yl(2-((2R,3S,4S,5S)-3,4,5-trihydroxy-6-(4-methoxyphenoxy)tetrahydro-2H-pyran-2-yl)ethyl)phosphinic acid], 10 to 100 µM; to `NC[C@H]1O[C@H](O)[C@@H](O)[C@@H](O)[C@@H]1O` [Compound A41, (2S,3S,4S,5S,6R)-6-(aminomethyl)tetrahydro-2H-pyran-2,3,4,5-tetraol hydrochloride], 10 to 100 µM.
Next, `O=C(NS(=O)(=O)CC[C@H]1O[C@H](O)[C@@H](O)[C@@H](O)[C@@H]1O)c1ccno1` [Compound A11, N-((2-((2R,3S,4S,5S,6S)-3,4,5,6-tetrahydroxytetrahydro-2H-pyran-2-yl)ethyl)sulfonyl)isoxazole-5-carboxamide]: 10 to 100 µM.
As for `O=P(O)(O)CC[C@H]1O[C@H](c2cn(-c3ccccc3)nn2)[C@@H](O)[C@@H](O)[C@@H]1O` [Compound A84, (2-((2R,3S,4S,5S,6R)-3,4,5-trihydroxy-6-(1-phenyl-1H-1,2,3-triazol-4-yl)tetrahydro-2H-pyran-2-yl)ethyl)phosphonic acid], the IC50 is below 10 µM.
Next, `CC(=O)NS(=O)(=O)OC[C@H]1O[C@H](Oc2ccccc2)[C@@H](O)[C@@H](O)[C@@H]1O` [Compound A4, ((2R,3S,4S,5S,6R)-3,4,5-trihydroxy-6-phenoxytetrahydro-2H-pyran-2-yl)methyl acetylsulfamate]: 100 to 300 µM; `O=P(O)(O)CC[C@H]1O[C@H](c2cn(C3CCNCC3)nn2)[C@@H](O)[C@@H](O)[C@@H]1O` [Compound A86, (2-((2R,3S,4S,5S,6R)-3,4,5-trihydroxy-6-(1-(piperidin-4-yl)-1H-1,2,3-triazol-4-yl)tetrahydro-2H-pyran-2-yl)ethyl)phosphonic acid]: below 10 µM; `COc1ccc(OC2O[C@H](CCP(=O)(O)Cc3ccccc3)[C@@H](O)[C@H](O)[C@@H]2O)cc1` (stereo partly drawn) [Compound A81, benzyl(2-((2R,3S,4S,5S)-3,4,5-trihydroxy-6-(4-methoxyphenoxy)tetrahydro-2H-pyran-2-yl)ethyl)phosphinic acid]: below 10 µM.
As to `CO[C@H]1O[C@H](CCS(=O)(=O)Nc2ncccn2)[C@@H](O)[C@H](O)[C@@H]1O` [Compound A9, N-(pyrimidin-2-yl)-2-((2R,3S,4S,5S,6S)-3,4,5-trihydroxy-6-methoxytetrahydro-2H-pyran-2-yl)ethane-1-sulfonamide], the IC50 was in the range of 100 to 300 µM.
In the case of `COc1ccc(O[C@H]2O[C@H](CCP(=O)(O)Cc3c(F)ccc(F)c3F)[C@@H](O)[C@H](O)[C@@H]2O)cc1` [Compound A54, (2,3,6-trifluorobenzyl) (2-((2R,3S,4S,5S)-3,4,5-trihydroxy-6-(4-methoxyphenoxy)tetrahydro-2H-pyran-2-yl)ethyl)phosphinic acid], the IC50 is below 10 µM.
Next, `COCP(=O)(O)CC[C@H]1O[C@H](Oc2ccccc2)[C@@H](O)[C@@H](O)[C@@H]1O` [Compound A45, methoxymethyl-[2-[(2R,3S,4S,5S,6R)-3,4,5-trihydroxy-6-phenoxy-tetrahydropyran-2-yl]ethyl]phosphinic acid]: 10 to 100 µM; `COc1ccc(OC2O[C@H](CCP(=O)(O)CC(F)(F)F)[C@@H](O)[C@H](O)[C@@H]2O)cc1` (stereo partly drawn) [Compound A80, (2,2,2-trifluoroethyl) (2-((2R,3S,4S,5S)-3,4,5-trihydroxy-6-(4-methoxyphenoxy)tetrahydro-2H-pyran-2-yl)ethyl)phosphinic acid]: 10 to 100 µM.
On to `O=P(O)(CC[C@H]1OC(O)[C@@H](O)[C@@H](O)[C@@H]1O)Cc1c(F)cccc1F` (stereo partly drawn) [Compound A60, (2,6-difluorobenzyl) (2-((2R,3S,4S,5S)-3,4,5,6-tetrahydroxytetrahydro-2H-pyran-2-yl)ethyl)phosphinic acid], for which the IC50 was 10 to 100 µM.
To `O=C(NS(=O)(=O)CC[C@H]1O[C@H](O)[C@@H](O)[C@@H](O)[C@@H]1O)c1ccccc1` [Compound A12, N-((2-((2R,3S,4S,5S,6S)-3,4,5,6-tetrahydroxytetrahydro-2H-pyran-2-yl)ethyl)sulfonyl)benzamide] belongs 100 to 300 µM; to `N#CNC(=O)CC[C@H]1O[C@H](Oc2ccccc2)[C@@H](O)[C@@H](O)[C@@H]1O` [Compound A3, N-cyano-3-((2R,3S,4S,5S,6R)-3,4,5-trihydroxy-6-phenoxytetrahydro-2H-pyran-2-yl)propanamide], 10 to 100 µM.

The values above are taken from patent US20260131007A1, “Mannose 6-Phosphate Receptor Binding Compounds for the Degradation of Extracellular Proteins” (Avilar Therapeutics, Inc., priority 2023, published 2026).
